From patent US11938104B1, “Compositions and methods for prevention and treatment of coronavirus and related disorders” (Abrexa Pharmaceuticals, Inc., priority 2021, dated 2024)
Like-named read-outs stand apart in the source and are kept apart here.

Legend:
Male SD rats = assay: J147 dose-response, 2-hour suture MCAO-induced ischemia followed by reperfusion, 72 h (Example 3); assay type: in vivo, rat
SD rats = conditions: rat, in vivo
male Sprague Dawley rats = assay type: in vivo, rat
[1] = J147 1.0, 10, 30 mg/kg at 2 hours after onset of ischemia, 72 h after stroke, dose-dependent manner

## COc1cccc(/C=N/N(C(=O)C(F)(F)F)c2ccc(C)cc2C)c1 [Compound J147]
Male SD rats; 1.0, 10, 30 mg/kg tested
  effective optimal dose for the treatment of acute ischemic stroke in rats: 10 mg/kg
Male SD rats; [1]
  infarct volumes: significantly reduced
  neurological deficit after reperfusion (Bederson score): significantly reduced
SD rats
  protection from stroke in the absence of reperfusion (infarction, TTC-stained sections): fails to provide any significant protection
Male Sprague Dawley rats; iv, doses of 1, 10 and 30 mg/kg tested
  optimal effective dose: 10 mg/kg
Male Sprague Dawley rats; rat, in vivo
  infarct volume (TTC-stained sections): large reduction
  infarct volume relative to placebo (TTC-stained sections): insignificant reduction
Male Sprague Dawley rats; rat, in vivo, ip
  infarct volume (TTC-stained sections): modest reduction
